Experimental findings from patent US10316017B2, “COT modulators and methods of use thereof” (Gilead Sciences, Inc., priority 2015, dated 2019) are described below.

Like-named read-outs stand apart in the source and are kept apart here.

The target of assay [1] is T1, human Cot catalytic domain (30-397 amino acids) (Homo sapiens, UniProt P41279).
T1 construct: Purified recombinant human Cot catalytic domain (30-397 amino acids) was purchased from Cama Biosciences; purchased Cama Biosciences (so in the source)
The experiment in a line: High Throughput Cot Biochemical Assay (KinEASE TR-FRET). The note with it: read-out: IC50 HTRF. In a few lines:
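TR-FRET (KinEASE) read-out: Eu-labelled phospho-specific antibody binds XL665-tagged STK3 peptide (1 μM) phosphorylated by 5 nM human Cot kinase domain (residues 30-397). Reaction at 400 μM ATP, pH 7.0 MOPS buffer with 10 mM MgOAc, 1 mM DTT and 0.1% DMSO.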

In assay [2] the test system is TNFα production in LPS-stimulated human monocytes. Description: Cot Monocyte TNFα Cell Based Assay. Particulars: Homo sapiens, Monocyte, read-out: EC50 TNF. In a few lines:
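TNFα release quantified by two-antibody TR-FRET, normalised to unstimulated (0%) and LPS-stimulated (100%) wells. Cells got a 1 h compound exposure at 37° C in 0.5% DMSO before 4 h challenge with 50 pg/ml LPS, at 5,000 cells/well.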

The mark [3] stands for this setting: Cot KinEASE TR-FRET (HTRF) biochemical assay, 400 μM ATP.
The mark [4] stands for this setting: TNFα in LPS-stimulated human monocytes.
The mark [5] stands for this setting: Cot biochemical HTRF (KinEASE TR-FRET) assay.
[6] abbreviates: Cot KinEASE TR-FRET, 400 μM ATP.
The mark [7] stands for this setting: LPS-stimulated human monocytes, TNFα TR-FRET.

T1 sequence (P41279 30-397): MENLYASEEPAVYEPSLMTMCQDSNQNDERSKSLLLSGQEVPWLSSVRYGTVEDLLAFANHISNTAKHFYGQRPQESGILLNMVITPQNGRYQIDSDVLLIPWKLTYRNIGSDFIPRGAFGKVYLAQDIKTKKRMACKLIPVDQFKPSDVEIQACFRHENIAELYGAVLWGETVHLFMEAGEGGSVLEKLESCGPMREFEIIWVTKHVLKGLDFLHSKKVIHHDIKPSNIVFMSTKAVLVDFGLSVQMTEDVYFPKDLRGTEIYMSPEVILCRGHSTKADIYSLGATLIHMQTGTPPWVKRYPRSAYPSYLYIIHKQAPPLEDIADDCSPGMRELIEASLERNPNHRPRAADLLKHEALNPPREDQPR

What is called IC50 is the point on the concentration scale where inhibition reaches its midpoint. Usually EC50 stands for the midpoint of the concentration-response curve. Take `[2H]C(Nc1cc(Cl)c2ncc(C#N)c(N[C@@H]3CCCC[C@@H]3N)c2c1)(c1ccc(F)cc1)c1cn(C2CC2)nn1` (stereo in doubt) [Example 228, 4-(((1R,2S)-2-aminocyclohexyl)amino)-8-chloro-6-(((S)-(1-cyclopropyl-1H-1,2,3-triazol-4-yl)(4-fluorophenyl)methyl-d)amino)quinoline-3-carbonitrile]: in assay [1] (setting [3]), the IC50 was found to be 807 nM. In addition, the EC50 in assay [2] (setting [4]) is > 10000 nM.

In the case of `C[C@@H](Nc1c(C#N)cnc2c(Cl)cc(N[C@@H](c3cccc(C(=O)N(C)C)c3)c3cn(C4CCN(C(C)(C)C)CC4)nn3)cc12)c1ccccc1` [Example 571, 3-((S)-(1-(1-(tert-butyl)piperidin-4-yl)-1H-1,2,3-triazol-4-yl)((8-chloro-3-cyano-4-(((R)-1-phenylethyl)amino)quinolin-6-yl)amino)methyl)-N,N-dimethylbenzamide], the IC50 in assay [1] (setting [5]) stood at 6 nM. The EC50 in assay [2] (setting [4]) came to 382 nM.

Turning to `N#Cc1cnc2c(Cl)cc(N[C@@H](c3ccccc3)c3cn([C@@H]4CCNC[C@H]4F)nn3)cc2c1Nc1ccc(F)c(Cl)c1` [Example 744, 8-chloro-4-((3-chloro-4-fluorophenyl)amino)-6-(((S)-(1-((3R,4R)-3-fluoropiperidin-4-yl)-1H-1,2,3-triazol-4-yl)(phenyl)methyl)amino) quinoline-3-carbonitrile], the half-maximal inhibitory concentration (IC50) in assay [1] (setting [5]) worked out at 13 nM. The EC50 in assay [2] (setting [4]) was found to be 363 nM.

Take `Cc1c(-c2ncco2)cccc1[C@H](Nc1cc(C#N)c2ncc(C#N)c(NCC(C)(C)C)c2c1)c1cn(C2(C(F)F)CC2)nn1` [Example 1056, (S)-6-(((1-(1-(difluoromethyl)cyclopropyl)-1H-1,2,3-triazol-4-yl)(2-methyl-3-(oxazol-2-yl)phenyl)methyl)amino)-4-(neopentylamino)quinoline-3,8-dicarbonitrile]: the IC50 in assay [1] (setting [6]) was determined as 2 nM. The EC50 in assay [2] (setting [7]) came to 63 nM.

Consider `[2H][C@](Nc1cc(C(F)(F)F)c2ncc(C#N)c(NCC(C)(C)C)c2c1)(c1ccc(F)cc1)c1cn(C2CC2)nn1` [Example 196, (S)-6-(((1-cyclopropyl-1H-1,2,3-triazol-4-yl)(4-fluorophenyl)methyl-d)amino)-4-(neopentylamino)-8-(trifluoromethyl) quinoline-3-carbonitrile], for which the IC50 in assay [1] (setting [3]) was 267 nM. For the same compound, the EC50 in assay [2] (setting [4]) came to 1510 nM.

Regarding `[2H][C@](Nc1cc(Cl)c2ncc(C#N)c(N[C@H](CC)c3ccccc3)c2c1)(c1ccc(F)cc1)c1cn(C2CC2)nn1` [Compound 2], the IC50 in assay [1] (setting [3]) came to 6 nM. Also, in assay [2] (setting [4]), the EC50 stood at 151 nM.

`COCCN1CCC(n2cc([C@@H](Nc3cc(Cl)c4ncc(C#N)c(Nc5ccc(F)c(Cl)c5)c4c3)c3ccc(F)cc3)nn2)CC1` [Compound 35]: the IC50 in assay [1] (setting [3]) is 15 nM. In addition, the EC50 in assay [2] (setting [4]) is 229 nM.

`N#Cc1cccc([C@H](Nc2cc(Cl)c3ncc(C#N)c(Nc4ccc(Cl)c(Cl)c4F)c3c2)c2c[nH]nn2)c1` [Example 465, (S)-8-chloro-6-(((3-cyanophenyl)(1H-1,2,3-triazol-4-yl)methyl)amino)-4-((3,4-dichloro-2-fluorophenyl)amino) quinoline-3-carbonitrile]: the IC50 in assay [1] (setting [5]) worked out at 41 nM. The EC50 in assay [2] (setting [4]) was 821 nM.

Regarding `Cc1c(C#N)cccc1[C@H](Nc1cc(C#N)c2ncc(C#N)c(NCC(C)(C)C)c2c1)c1cn([C@@H](C)CF)nn1` [Example 1150, 6-(((S)-(3-cyano-2-methylphenyl)(1-((S)-1-fluoropropan-2-yl)-1H-1,2,3-triazol-4-yl)methyl)amino)-4-(neopentylamino)quinoline-3,8-dicarbonitrile], the IC50 in assay [1] (setting [6]) came to 2 nM. In assay [2] (setting [7]), the EC50 worked out at 27 nM.

Regarding `[2H][C@](Nc1cc(Cl)c2ncc(C#N)c(NC3CCCCC3C)c2c1)(c1ccc(F)cc1)c1cn(C2CC2)nn1` (stereo partly drawn) [Example 321, 8-chloro-6-(((S)-(1-cyclopropyl-1H-1,2,3-triazol-4-yl)(4-fluorophenyl)methyl-d)amino)-4-((2-methylcyclohexyl)amino) quinoline-3-carbonitrile], in assay [1] (setting [3]), the IC50 was found to be 159 nM. Besides, in assay [2] (setting [4]), the EC50 was 391 nM.

On to `CC(C)(C)CNc1c(C#N)cnc2c(Cl)cc(N[C@@H](c3ccccc3Cl)c3nnn(C4(C)CC4)c3F)cc12` [Example 1169, (S)-8-chloro-6-(((2-chlorophenyl)(5-fluoro-1-(1-methylcyclopropyl)-1H-1,2,3-triazol-4-yl)methyl)amino)-4-(neopentylamino)quinoline-3-carbonitrile], for which the IC50 in assay [1] (setting [6]) was determined as 234 nM. For the same compound, the EC50 in assay [2] (setting [7]) is ≥ 1000 nM.

Consider `[2H][C@@](Nc1cc(C#N)c2ncc(C#N)c(NCC(C)(C)C)c2c1)(c1cn(C2CC2)nn1)c1ccccc1Cl` [Example 152, (S)-6-(((2-chlorophenyl) (1-cyclopropyl-1H-1,2,3-triazol-4-yl)methyl-d)amino)-4-(neopentylamino) quinoline-3,8-dicarbonitrile], for which the IC50 in assay [1] (setting [3]) was 7 nM. Also, in assay [2] (setting [4]), the EC50 came to 213 nM.

With `CNC(=O)c1cccc([C@H](Nc2cc(C#N)c3ncc(C#N)c(NCC(C)(C)C)c3c2)c2cn(C3CC3)nn2)c1` [Example 55, (S)-3-((1-cyclopropyl-1H-1,2,3-triazol-4-yl) ((3,8-dicyano-4-(neopentylamino)quinolin-6-yl)amino)methyl)-N-methylbenzamide], the IC50 in assay [1] (setting [3]) turned out to be 2 nM. The EC50 in assay [2] (setting [4]) is 414 nM.

`[2H][C@](Nc1cc(Cl)c2ncc(C#N)c(NCCC3CC3)c2c1)(c1ccc(F)cc1)c1cn(C2CC2)nn1` [Example 269, (S)-8-chloro-6-(((1-cyclopropyl-1H-1,2,3-triazol-4-yl)(4-fluorophenyl)methyl-d)amino)-4-((2-cyclopropylethyl)amino)quinoline-3-carbonitrile]: the IC50 in assay [1] (setting [3]) turned out to be 253 nM. Besides, the EC50 in assay [2] (setting [4]) was 4520 nM.

`CC(C)(C)CNc1c(C#N)cnc2c(C#N)cc(N[C@@H](c3cccc(C(=O)N4CC(F)(F)C4)c3)c3cn(C4CC4)nn3)cc12` [Example 56, (S)-6-(((1-cyclopropyl-1H-1,2,3-triazol-4-yl)(3-(3,3-difluoroazetidine-1-carbonyl)phenyl)methyl)amino)-4-(neopentylamino) quinoline-3,8-dicarbonitrile]: the half-maximal inhibitory concentration (IC50) in assay [1] (setting [3]) came to 3 nM. The EC50 in assay [2] (setting [4]) came to 184 nM.

Consider `CC[C@@H](Nc1c(C#N)cnc2c(Cl)cc(N[C@@H](c3cccc(C(=O)N4CC(F)(F)C4)c3)c3c[nH]nn3)cc12)c1ccccc1` [Example 561, 8-chloro-6-(((S)-(3-(3,3-difluoroazetidine-1-carbonyl)phenyl)(1H-1,2,3-triazol-4-yl)methyl)amino)-4-(((R)-1-phenylpropyl)amino)quinoline-3-carbonitrile], for which the IC50 in assay [1] (setting [5]) amounted to 6 nM. In assay [2] (setting [4]), the EC50 turned out to be 1150 nM.

As for `CC(C)(C)CNc1c(C#N)cnc2c(Cl)cc(N[C@H](c3cn(C4(C(N)=O)CC4)nn3)c3ccccc3Cl)cc12` [Example 70, (S)-1-(4-(((8-chloro-3-cyano-4-(neopentylamino)quinolin-6-yl)amino) (2-chlorophenyl)methyl)-1H-1,2,3-triazol-1-yl) cyclopropane-1-carboxamide], the IC50 in assay [1] (setting [3]) turned out to be 9 nM. The EC50 in assay [2] (setting [4]) worked out at 124 nM.

For `CC(C)Nc1c(C#N)cnc2c(Cl)cc(N[C@@H](c3ccc(Cl)cc3)c3cn(C4CCN(C(C)(C)C)CC4)nn3)cc12` [Example 682, (S)-6-(((1-(1-(tert-butyl)piperidin-4-yl)-1H-1,2,3-triazol-4-yl)(4-chlorophenyl)methyl)amino)-8-chloro-4-(isopropylamino)quinoline-3-carbonitrile], the IC50 in assay [1] (setting [5]) was found to be 599 nM. Also, in assay [2] (setting [4]), the EC50 was 15700 nM.
